Measurements published in PubChem BioAssay (NCI).
Where “and” joins values, the source holds several entries; their conditions need not be identical. Equal entries are not always repeated.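 Values below derive from 48-hour exposures of cells grown in 96-well plates, with endpoints linearly interpolated between the two concentrations bracketing the appropriate inhibition level. Abbreviation: GI50, concentration required for 50% inhibition of growth. TGI denotes the concentration required for complete inhibition of growth.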

How the values were obtained:
Assay in all cases: NCI tumour cell line growth inhibition, 48 h
PC-3 prostate = system: PC-3 prostate
UO-31 renal = system: UO-31 renal
SF-295 CNS = system: SF-295 CNS
HCC-2998 colon = system: HCC-2998 colon
SK-OV-3 ovarian = system: SK-OV-3 ovarian
OVCAR-3 ovarian = system: OVCAR-3 ovarian
DMS 273 small cell lung = system: DMS 273 small cell lung
RXF 393 renal = system: RXF 393 renal
SK-MEL-28 melanoma = system: SK-MEL-28 melanoma
UACC-257 melanoma = system: UACC-257 melanoma
SN12K1 renal = system: SN12K1 renal
SK-MEL-2 melanoma = system: SK-MEL-2 melanoma
HS 578T breast = system: HS 578T breast
SW-620 colon = system: SW-620 colon
DMS 114 small cell lung = system: DMS 114 small cell lung
M14 melanoma = system: M14 melanoma
OVCAR-8 ovarian = system: OVCAR-8 ovarian
HOP-18 NSCLC = system: HOP-18 NSCLC
SF-268 CNS = system: SF-268 CNS
BT-549 breast = system: BT-549 breast
MDA-MB-435 = system: MDA-MB-435
EKVX NSCLC = system: EKVX NSCLC
786-0 renal = system: 786-0 renal
XF 498 CNS = system: XF 498 CNS
RPMI-8226 leukemia = system: RPMI-8226 leukemia
LOX IMVI melanoma = system: LOX IMVI melanoma
SK-MEL-5 melanoma = system: SK-MEL-5 melanoma
SNB-78 CNS = system: SNB-78 CNS
A549 NSCLC = system: A549 NSCLC
HCT-116 colon = system: HCT-116 colon
P388/ADR leukemia = system: P388/ADR leukemia
K-562 leukemia = system: K-562 leukemia
HOP-62 NSCLC = system: HOP-62 NSCLC
KM12 colon = system: KM12 colon
MDA-N = system: MDA-N
UACC-62 melanoma = system: UACC-62 melanoma
CCRF-CEM leukemia = system: CCRF-CEM leukemia
T-47D breast = system: T-47D breast
NCI-H460 lung = system: NCI-H460 lung
KM20L2 colon = system: KM20L2 colon
SN12C renal = system: SN12C renal
DU-145 prostate = system: DU-145 prostate
DLD-1 colon = system: DLD-1 colon
MCF7 breast = system: MCF7 breast
P388 leukemia = system: P388 leukemia
ACHN renal = system: ACHN renal
CAKI-1 renal = system: CAKI-1 renal
HL-60(TB) leukemia = system: HL-60(TB) leukemia
SNB-75 CNS = system: SNB-75 CNS
HT29 colon = system: HT29 colon
SR leukemia = system: SR leukemia
MDA-MB-231 breast = system: MDA-MB-231 breast
NCI-H226 lung = system: NCI-H226 lung
NCI/ADR-RES ovarian = system: NCI/ADR-RES ovarian
HOP-92 NSCLC = system: HOP-92 NSCLC

COc1ccc2c(c1)c1c(C)c3cnccc3c(C)c1n2CCCN
TGI (PC-3 prostate): 302 nM | GI50 (UO-31 renal): 12.5 nM | TGI (UO-31 renal): 1360 nM and 168 nM | GI50 (SF-295 CNS): 147 nM | TGI (SF-295 CNS): 621 nM and 1000 nM | GI50 (HCC-2998 colon): 75.3 nM | TGI (HCC-2998 colon): 1200 nM and 225 nM | GI50 (SK-OV-3 ovarian): 202 nM | TGI (SK-OV-3 ovarian): 1140 nM and 713 nM | GI50 (OVCAR-3 ovarian): 119 nM | TGI (OVCAR-3 ovarian): 1180 nM and 495 nM | TGI (DMS 273 small cell lung): 382 nM | GI50 (RXF 393 renal): 145 nM | TGI (RXF 393 renal): 168 nM and 307 nM | TGI (SK-MEL-28 melanoma): 892 nM and 1100 nM | TGI (UACC-257 melanoma): 1000 nM and 1690 nM | TGI (SN12K1 renal): 239 nM | GI50 (SK-MEL-2 melanoma): 193 nM | TGI (SK-MEL-2 melanoma): 815 nM and 393 nM | TGI (HS 578T breast): 953 nM | GI50 (SW-620 colon): < 10 nM | TGI (SW-620 colon): 584 nM and 602 nM | TGI (DMS 114 small cell lung): 669 nM | TGI (M14 melanoma): 330 nM | GI50 (OVCAR-8 ovarian): 105 nM | TGI (OVCAR-8 ovarian): 741 nM and 892 nM | TGI (HOP-18 NSCLC): 1550 nM | GI50 (SF-268 CNS): 63.3 nM and 57.7 nM | TGI (SF-268 CNS): 204 nM and 425 nM | TGI (BT-549 breast): 2600 nM | TGI (MDA-MB-435): 190 nM | GI50 (EKVX NSCLC): 106 nM | TGI (EKVX NSCLC): 771 nM and 405 nM | TGI (786-0 renal): 634 nM | TGI (XF 498 CNS): 942 nM | GI50 (RPMI-8226 leukemia): 93.1 nM and 89.4 nM | TGI (RPMI-8226 leukemia): 443 nM and 555 nM | TGI (LOX IMVI melanoma): 241 nM | GI50 (SK-MEL-5 melanoma): 282 nM | TGI (SK-MEL-5 melanoma): 746 nM and 1060 nM | TGI (SNB-78 CNS): 653 nM | GI50 (A549 NSCLC): 18.6 nM | GI50 (HCT-116 colon): 65.9 nM | TGI (HCT-116 colon): 303 nM and 1060 nM | TGI (P388/ADR leukemia): 725 nM | GI50 (K-562 leukemia): 71.2 nM and 13.9 nM | TGI (K-562 leukemia): 637 nM and 382 nM | GI50 (HOP-62 NSCLC): 18.7 nM | TGI (HOP-62 NSCLC): 984 nM and 279 nM | GI50 (KM12 colon): 79.8 nM and 29.8 nM | TGI (KM12 colon): 483 nM and 213 nM | TGI (MDA-N): 306 nM | GI50 (UACC-62 melanoma): 263 nM | TGI (UACC-62 melanoma): 950 nM and 778 nM | GI50 (CCRF-CEM leukemia): 47.2 nM and < 10 nM | TGI (T-47D breast): 760 nM | GI50 (NCI-H460 lung): 19.9 nM | TGI (NCI-H460 lung): 282 nM and 135 nM | TGI (KM20L2 colon): 685 nM | GI50 (SN12C renal): 170 nM | TGI (SN12C renal): 916 nM and 1010 nM | TGI (DU-145 prostate): 389 nM | TGI (DLD-1 colon): 741 nM | GI50 (MCF7 breast): 16.2 nM | TGI (MCF7 breast): 663 nM and 108 nM | TGI (P388 leukemia): 98.7 nM | TGI (ACHN renal): 695 nM | GI50 (CAKI-1 renal): 130 nM and 164 nM | TGI (CAKI-1 renal): 491 nM and 806 nM | GI50 (HL-60(TB) leukemia): 450 nM and 238 nM | TGI (HL-60(TB) leukemia): 977 nM and 1020 nM | GI50 (SNB-75 CNS): 64 nM | TGI (SNB-75 CNS): 791 nM and 206 nM | GI50 (HT29 colon): < 11.4 nM | TGI (HT29 colon): 734 nM and 182 nM | TGI (SR leukemia): 118 nM | TGI (MDA-MB-231 breast): 381 nM | GI50 (NCI-H226 lung): 558 nM and 416 nM | TGI (NCI-H226 lung): 1300 nM and 1600 nM | GI50 (NCI/ADR-RES ovarian): 217 nM | TGI (NCI/ADR-RES ovarian): 696 nM and 759 nM | GI50 (HOP-92 NSCLC): 352 nM | TGI (HOP-92 NSCLC): 739 nM and 1130 nM
